In patent US20220323446A1 (Amgen Inc., priority 2021, published 2022):

How the values were obtained:
[1] = test system: phosphorylation of extracellular signal-regulated kinase (ERK); settings: preclinical studies; cited from earlier work
[2] = Phase 1 interaction study, sotorasib with famotidine or omeprazole, fed conditions; format: in vivo, human
Procedure: Safety and tolerability monitoring was performed throughout the study.

OATP1B1 = target: T1, OATP1B1 (Homo sapiens, UniProt Q9Y6L6); test: Phase 1 interaction study, sotorasib with single dose of rifampin; format: in vivo
T1 construct: from tissue
T1 sequence (Q9Y6L6 1-691): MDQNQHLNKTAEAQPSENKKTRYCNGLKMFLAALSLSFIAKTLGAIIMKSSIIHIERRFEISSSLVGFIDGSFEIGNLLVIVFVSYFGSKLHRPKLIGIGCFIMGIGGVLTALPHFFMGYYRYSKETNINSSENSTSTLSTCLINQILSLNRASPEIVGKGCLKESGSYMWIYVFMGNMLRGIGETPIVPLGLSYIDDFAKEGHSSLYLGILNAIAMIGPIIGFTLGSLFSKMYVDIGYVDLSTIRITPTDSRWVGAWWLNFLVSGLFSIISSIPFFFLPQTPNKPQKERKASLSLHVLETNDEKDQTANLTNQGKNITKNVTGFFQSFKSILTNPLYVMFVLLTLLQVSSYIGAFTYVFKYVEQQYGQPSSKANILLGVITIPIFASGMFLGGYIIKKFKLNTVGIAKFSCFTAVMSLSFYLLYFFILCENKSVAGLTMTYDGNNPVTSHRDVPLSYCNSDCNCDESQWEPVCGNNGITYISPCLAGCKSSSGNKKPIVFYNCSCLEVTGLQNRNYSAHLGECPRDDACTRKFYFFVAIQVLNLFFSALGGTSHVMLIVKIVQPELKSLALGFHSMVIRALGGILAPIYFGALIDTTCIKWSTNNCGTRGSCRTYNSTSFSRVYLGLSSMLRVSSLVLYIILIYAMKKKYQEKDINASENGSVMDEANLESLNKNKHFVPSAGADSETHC

[3] = Sotorasib dose reduction and discontinuation (safety analysis set); settings: for Discontinuation reason: Adverse event / Discontinuation reason: Death / Discontinuation reason: Disease progression / Subjects who discontinued sotorasib: subjects with any dose reduction;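 on all read-outs here: counts of patients in the safety analysis set, where lowering the dose was allowed upon certain adverse events such as hepatotoxicity, nausea or vomiting and diarrhea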
[4] = Common adverse events during Phase 2 Study; format: in vivo, human
[5] = Phase 1 interaction study, sotorasib with omeprazole, fasted conditions; format: in vivo, human
CYP3A4 = CYP3A4 (Homo sapiens, UniProt P08684); test: Phase 1 interaction study, sotorasib with multiple doses of rifampin (strong CYP3A4 inducer); format: in vivo; parameters: from tissue; host or cells: in vivo, healthy human subjects (liver or gut enzyme)
clinical = settings: human, in vivo, oral
[6] = Dose comparison study 960 mg QD vs 240 mg QD, pharmacokinetics; settings: for AUC0-24h: GeoMean
[7] = test system: NSCLC adenocarcinoma (stage IV); test: Dose comparison study, tumor response (RECIST 1.1) at 240 mg once daily; format: in vivo, human
Procedure: The extent of disease is evaluated by contrast-enhanced MRI/CT according to RECIST 1.1, as described below. In order to reduce radiation exposure for subjects, low dose CT should be utilized whenever possible.

[8] = famotidine 10 hours prior to and 2 hours after sotorasib
[9] = 427 subjects, sotorasib monotherapy, any tumor type and any dose
[10] = Any tumor types 180 mg QD fasted (n = 6)
[11] = Any tumor types 360 mg QD fasted (n = 27)
[12] = Any tumor types 480 mg BID fed (n = 26)
[13] = Any tumor types 720 mg QD fasted (n = 11)
[14] = Any tumor types 960 mg QD fasted (n = 339)
[15] = Any tumor types 960 mg QD fed (n = 18)
[16] = Total any tumor types and any dose (n = 427)
[17] = of the 56 subjects who had a dose reduction
[18] = Total any tumor types and any dose (N = 56)
[19] = with omeprazole vs sotorasib alone, fasted state

CYP3A4, sequence (P08684 whole entry): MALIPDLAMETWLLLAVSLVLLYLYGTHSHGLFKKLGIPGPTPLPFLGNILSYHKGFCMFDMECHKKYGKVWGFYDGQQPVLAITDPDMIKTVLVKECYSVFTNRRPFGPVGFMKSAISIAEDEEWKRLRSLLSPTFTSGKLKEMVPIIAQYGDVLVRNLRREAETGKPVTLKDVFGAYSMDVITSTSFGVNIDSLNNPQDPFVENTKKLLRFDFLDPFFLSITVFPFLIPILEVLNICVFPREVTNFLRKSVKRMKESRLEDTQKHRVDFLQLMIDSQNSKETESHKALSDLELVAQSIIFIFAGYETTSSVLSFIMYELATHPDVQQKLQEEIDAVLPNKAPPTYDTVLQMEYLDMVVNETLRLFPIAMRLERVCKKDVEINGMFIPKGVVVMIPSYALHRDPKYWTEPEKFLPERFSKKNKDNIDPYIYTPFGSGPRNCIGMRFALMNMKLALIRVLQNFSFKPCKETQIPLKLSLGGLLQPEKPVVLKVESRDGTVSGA

For `C=CC(=O)N1CCN(c2nc(=O)n(-c3c(C)ccnc3C(C)C)c3nc(-c4c(O)cccc4F)c(F)cc23)[C@@H](C)C1` (atropisomer, axis not shown; (M)) [sotorasib, 6-fluoro-7-(2-fluoro-6-hydroxyphenyl)-(1M)-1-[4-methyl-2-(propan-2-yl)pyridin-3-yl]-4-[(2S)-2-methyl-4-(prop-2-enoyl)piperazin-1-yl]pyrido[2,3-d]pyrimidin-2(1H)-one], the “phosphorylation of ERK” value [1] is given as “inhibited nearly all detectable phosphorylation”, the safety and tolerability ([2]; 960 mg with 40 mg famotidine single dose or 40 mg omeprazole multiple daily dosing, healthy subjects) is given as “safe and well tolerated” and the “decrease of sotorasib AUC” value [2, 8] is given as 38%. For the same molecule, the “decrease of sotorasib Cmax” value [2, 8] was 35%, the “decrease of sotorasib AUC” value ([2]; repeat doses of omeprazole) was 57% and the “decrease of sotorasib Cmax” value ([2]; repeat doses of omeprazole) was 65%. The OATP1B1 substrate status (OATP1B1; concluded from single dose rifampin) was “not a substrate of OATP1B1”, the “effect of single dose of rifampin on sotorasib PK” value (OATP1B1; single dose rifampin) was “did not have a clinically meaningful effect” and the “subjects with a dose reduction” value [3, 9] was 13.1%. The “subjects with dose reduction due to adverse events (AEs)” value [3, 9] was 10.8%, the “Number of subjects with any dose reduction” value [3, 10] was 0 (0.0) n (%) and the “Primary reason for dose reduction: Adverse event” value (“Primary reason for dose reduction” below) [3, 10] was 0 (0.0) n (%). For the same molecule, the “Number of subjects with any dose reduction” value [3, 11] was 3 (11.1) n (%), the “Primary reason for dose reduction” value [3, 11] was 3 (11.1) n (%) and the “Number of subjects with any dose reduction” value [3, 12] was 3 (11.5) n (%). For the same molecule, the “Primary reason for dose reduction” value [3, 12] was 2 (7.7) n (%), the “Number of subjects with any dose reduction” value [3, 13] was 2 (18.2) n (%) and the “Primary reason for dose reduction” value [3, 13] was 1 (9.1) n (%). The “Number of subjects with any dose reduction” value [3, 14] was 36 (13.6) n (%), the “Primary reason for dose reduction” value [3, 14] was 38 (11.2) n (%) and the “Number of subjects with any dose reduction” value [3, 15] was 2 (11.1) n (%). The “Primary reason for dose reduction” value [3, 15] was 2 (11.1) n (%), the “Number of subjects with any dose reduction” value [3, 16] was 56 (13.1) n (%) and the “Primary reason for dose reduction” value [3, 16] was 46 (10.8) n (%). The “subjects who discontinued due to progression of disease” value [3, 17] was 44.6%, the “subjects who discontinued treatment with sotorasib” value [3, 17] was 69.6% and the “subjects whose reason to discontinue was due to AEs” value [3, 17] was 21.4%. The “Discontinuation reason: Adverse event” value ([3]; 180 mg QD fasted (N = 0)) was 0 (0.0) n (%), the “Discontinuation reason: Death” value ([3]; 180 mg QD fasted (N = 0)) was 0 (0.0) n (%) and the “Discontinuation reason: Disease progression” value ([3]; 180 mg QD fasted (N = 0)) was 0 (0.0) n (%). For the same molecule, the “Subjects who discontinued sotorasib” value ([3]; 180 mg QD fasted (N = 0)) was 0 (−) n (%), the “Discontinuation reason: Adverse event” value ([3]; 360 mg QD fasted (N = 3)) was 0 (0.0) n (%) and the “Discontinuation reason: Death” value ([3]; 360 mg QD fasted (N = 3)) was 0 (0.0) n (%). The “Discontinuation reason: Disease progression” value ([3]; 360 mg QD fasted (N = 3)) was 2 (66.7) n (%), the “Subjects who discontinued sotorasib” value ([3]; 360 mg QD fasted (N = 3)) was 2 (66.7) n (%) and the “Discontinuation reason: Adverse event” value ([3]; 480 mg BID fed (N = 3)) was 2 (66.7) n (%). For the same molecule, the “Discontinuation reason: Death” value ([3]; 480 mg BID fed (N = 3)) was 0 (0.0) n (%), the “Discontinuation reason: Disease progression” value ([3]; 480 mg BID fed (N = 3)) was 0 (0.0) n (%) and the “Subjects who discontinued sotorasib” value ([3]; 480 mg BID fed (N = 3)) was 2 (66.7) n (%). The “Discontinuation reason: Adverse event” value ([3]; 720 mg QD fasted (N = 2)) was 0 (0.0) n (%), the “Discontinuation reason: Death” value ([3]; 720 mg QD fasted (N = 2)) was 0 (0.0) n (%) and the “Discontinuation reason: Disease progression” value ([3]; 720 mg QD fasted (N = 2)) was 2 (100.0) n (%). The “Subjects who discontinued sotorasib” value ([3]; 720 mg QD fasted (N = 2)) was 2 (100.0) n (%), the “Discontinuation reason: Adverse event” value ([3]; 960 mg QD fasted (N = 46)) was 9 (19.6) n (%) and the “Discontinuation reason: Death” value ([3]; 960 mg QD fasted (N = 46)) was 0 (0.0) n (%). The “Discontinuation reason: Disease progression” value ([3]; 960 mg QD fasted (N = 46)) was 21 (45.7) n (%), the “Subjects who discontinued sotorasib” value ([3]; 960 mg QD fasted (N = 46)) was 32 (69.6) n (%) and the “Discontinuation reason: Adverse event” value ([3]; 960 mg QD fed (N = 2)) was 1 (50.0) n (%). For the same molecule, the “Discontinuation reason: Death” value ([3]; 960 mg QD fed (N = 2)) was 0 (0.0) n (%), the “Discontinuation reason: Disease progression” value ([3]; 960 mg QD fed (N = 2)) was 0 (0.0) n (%) and the “Subjects who discontinued sotorasib” value ([3]; 960 mg QD fed (N = 2)) was 1 (50.0 n (%). For the same molecule, the “Discontinuation reason: Adverse event” value [3, 18] was 12 (21.4) n (%), the “Discontinuation reason: Death” value [3, 18] was 0 (0.0) n (%) and the “Discontinuation reason: Disease progression” value [3, 18] was 25 (44.6) n (%). For the same molecule, the “Subjects who discontinued sotorasib” value [3, 18] was 39 (69.6) n (%), the “Abdominal pain, ALL GRADES” value [4] was 15% and the “Abdominal pain, GRADE 3 TO 4” value [4] was 1.0%. The “Arthalgia, ALL GRADES” value [4] was 12%, the “Arthalgia, GRADE 3 TO 4” value [4] was 1.0% and the “Constipation, ALL GRADES” value [4] was 16%. For the same molecule, the “Constipation, GRADE 3 TO 4” value [4] was 0.5%, the “Cough, ALL GRADES” value [4] was 20% and the “Cough, GRADE 3 TO 4” value [4] was 1.5%. The “Decreased appetite, ALL GRADES” value [4] was 13%, the “Decreased appetite, GRADE 3 TO 4” value [4] was 1.0% and the “Diarrhea, ALL GRADES” value [4] was 42%. The “Diarrhea, GRADE 3 TO 4” value [4] was 5%, the “Dyspnea, ALL GRADES” value [4] was 16% and the “Dyspnea, GRADE 3 TO 4” value [4] was 2.9%. For the same molecule, the “Fatigue, ALL GRADES” value [4] was 25%, the “Fatigue, GRADE 3 TO 4” value [4] was 2.0% and the “Headache, ALL GRADES” value [4] was 10%. For the same molecule, the “Headache, GRADE 3 TO 4” value [4] was 0%, the “Hepatotoxicity, ALL GRADES” value [4] was 25% and the “Hepatotoxicity, GRADE 3 TO 4” value [4] was 12%. For the same molecule, the “Musculoskeletal pain, ALL GRADES” value [4] was 35%, the “Musculoskeletal pain, GRADE 3 TO 4” value [4] was 2.0% and the “Nausea, ALL GRADES” value [4] was 26%. The “Nausea, GRADE 3 TO 4” value [4] was 1.0%, the “Pneumonia, ALL GRADES” value [4] was 12% and the “Pneumonia, GRADE 3 TO 4” value [4] was 7%. For the same molecule, the “Rash, ALL GRADES” value [4] was 12%, the “Rash, GRADE 3 TO 4” value [4] was 0% and the “Vomiting, ALL GRADES” value [4] was 17%. The “Vomiting, GRADE 3 TO 4” value [4] was 1.5%, the “sotorasib time to maximal plasma concentration (Lx) delayed by” value ([5]; 960 mg sotorasib with 40 mg omeprazole vs alone, fasted, healthy subjects) was 0.75 h and the “Mean terminal half-life (ty2) of sotorasib with omeprazole compared to alone” value ([5]; 960 mg sotorasib, 40 mg omeprazole, fasted) was “similar”. For the same molecule, the safety and tolerability ([5]; coadministered with 40 mg omeprazole or alone, healthy subjects) was “safe and well tolerated”, the AUC(0-inf) ([5]; human, plasma, 960 mg) was 29.3 µg·h/mL and the “decrease of sotorasib AUCinf” value [5, 19] was 42%. For the same molecule, the “decrease of sotorasib Cmax” value [5, 19] was 57%, the “Geometric mean sotorasib AUOnf” value (CYP3A4; 960 mg sotorasib with multiple doses of rifampin 600 mg) was 12.4 µg·h/mL and the safety and tolerability (CYP3A4; coadministered with 600 mg rifampin or alone, healthy subjects) was “safe and well tolerated”. For the same molecule, the CYP3A4 substrate status (CYP3A4; concluded from multiple doses of rifampin) was “is a CYP3A4 substrate”, the AUC(0-inf) (CYP3A4; human, plasma, 960 mg) was 25.6 µg·h/mL and the Cmax (CYP3A4; human, plasma, 960 mg) was 6.35 µg/mL. For the same molecule, the “decrease of sotorasib AUOnf” value (CYP3A4; multiple doses of rifampin) was 51%, the “decrease of sotorasib Cmax” value (CYP3A4; multiple doses of rifampin) was 35% and the Tmax (clinical; 240 mg) was 4 h. For the same molecule, the Tmax (clinical; 960 mg) was 4 h, the Tmax ([6]; 240 mg, Day 1, Median) was 1.0 h and the AUC0-24h ([6]; 240 mg, Day 8) was 36.3 µg·h/mL. The AUC0-24h ([6]; 960 mg, Day 1) was 85 µg·h/mL, the “mean exposures (Cmax and AUC0-24h) following 960 mg compared to 240 mg” value ([6]; Day 1 and Day 8) was “numerically higher” and the “Exposures on Day 8 lower than on Day 1” value ([6]; both 240 mg and 960 dosing) was 30-40%. For the same molecule, the tumor response ([7]; one patient, after cycle 3 and 5) was “stable disease (SD)”, the tumor response ([7]; other patient, after cycle 9) was “progression disease (PD)” and the tumor response ([7]; other patient, after cycles 3, 5, and 7) was “partial response (PR)”. For the same molecule, the tumor response ([7]; same patient, after cycles 7 and 9) was “partial response (PR)”.
